For this experiment, the target named is T1, estrogen receptor (Homo sapiens, UniProt P03372).
T1 construct: endogenous in cells; host or cells: ECC-1 cells
T1 sequence (P03372 1-595): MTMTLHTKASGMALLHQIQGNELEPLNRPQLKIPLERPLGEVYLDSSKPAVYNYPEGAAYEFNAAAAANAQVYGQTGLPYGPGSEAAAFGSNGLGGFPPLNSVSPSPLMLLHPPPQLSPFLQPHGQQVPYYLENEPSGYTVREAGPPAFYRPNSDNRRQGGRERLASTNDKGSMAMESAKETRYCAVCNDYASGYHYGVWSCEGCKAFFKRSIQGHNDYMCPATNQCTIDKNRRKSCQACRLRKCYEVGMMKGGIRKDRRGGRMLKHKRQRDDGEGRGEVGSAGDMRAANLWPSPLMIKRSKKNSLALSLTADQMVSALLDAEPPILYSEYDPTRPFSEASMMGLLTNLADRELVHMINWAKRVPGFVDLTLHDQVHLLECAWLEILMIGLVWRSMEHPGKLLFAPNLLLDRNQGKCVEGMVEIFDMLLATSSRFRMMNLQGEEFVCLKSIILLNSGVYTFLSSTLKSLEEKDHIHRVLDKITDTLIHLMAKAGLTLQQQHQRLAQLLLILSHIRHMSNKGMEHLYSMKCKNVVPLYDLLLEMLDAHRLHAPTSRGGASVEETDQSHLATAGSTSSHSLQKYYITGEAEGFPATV
The experiment is described as follows: AP assay (alkaline phosphatase activity in ECC-1 cells), agonist mode (absence of E2) and antagonist mode (presence of 500 pM E2). To be noted: 3 days, AP activity normalized to 500 pM E2 alone, agonist and antagonist mode combined. The format is cell-based. As to the method: ECC-1 cells were trypsinized and resuspended in hormone-depleted media and plated at a density of 15 k cells per well into a 96-well plate for at least 4 hours. Cells were treated with test compounds in the absence of E2 (for agonist mode) or in the presence of 500 pM E2 (for antagonist mode) for 3 days and plates were subsequently frozen at −80 °C. Thawed plates were incubated with a chromogenic substrate of AP, p-nitrophenyl phosphate (Thermo Fisher Scientific), for 40 minutes at 42 °C, and absorbances were read at 405 nm. AP activity was normalized to the activity of 500 pM E2 alone.
The compound numbers correspond to the compound numbers of Table 1 and 2. Compounds having an activity designated as “+” provided estrogen receptor agonism having (i) at least 80% increase in the E2-normalized signal in the AP assay (agonist mode) and (ii) no more than 80% reduction in the E2-normalized signal in the AP assay (antagonist mode). Compounds having an activity designated as “++” provided estrogen receptor antagonism having (i) between 10% and 80% increase in the E2-normalized signal in the AP assay (agonist mode) and (ii) between 10% and 80% reduction in the E2-normalized signal in the AP assay (antagonist mode).

Structures are written as SMILES.

Take `C[C@@H]1Cc2c([nH]c3ccccc23)[C@@H](c2n[nH]c3cc(CNCCCF)ccc23)N1CC(C)(C)F` [Compound I-14, 3-fluoro-N-[[3-[(1S,3R)-2-(2-fluoro-2-methyl-propyl)-3-methyl-1,3,4,9-tetrahydropyrido[3,4-b]indol-1-yl]-1H-indazol-6-yl]methyl]propan-1-amine]: the “Activity (estrogen receptor modulation, e.g., agonism and antagonism)” value (“Activity” for short) was “+ (estrogen receptor agonism having (i) at least 80% increase in the E2-normalized signal in the AP assay (agonist mode) and (ii) no more than 80% reduction in the E2-normalized signal in the AP assay (antagonist mode))”.
With `C[C@@H]1Cc2c([nH]c3ccccc23)[C@@H](c2n[nH]c3cc(CN4CCC45CC(F)(F)C5)ccc23)N1CC(C)(C)F` [Compound I-34, (1S,3R)-1-[6-[(6,6-difluoro-1-azaspiro[3.3]heptan-1-yl)methyl]-1H-indazol-3-yl]-2-(2-fluoro-2-methyl-propyl)-3-methyl-1,3,4,9-tetrahydropyrido[3,4-b]indole] the entry was “+ (estrogen receptor agonism having (i) at least 80% increase in the E2-normalized signal in the AP assay (agonist mode) and (ii) no more than 80% reduction in the E2-normalized signal in the AP assay (antagonist mode))”; with `C[C@@H]1Cc2c([nH]c3ccccc23)[C@@H](c2n[nH]c3cc(CN(C)CCCF)ccc23)N1CC(C)(C)F` [Compound I-12, 3-fluoro-N-[[3-[(1S,3R)-2-(2-fluoro-2-methyl-propyl)-3-methyl-1,3,4,9-tetrahydropyrido[3,4-b]indol-1-yl]-1H-indazol-6-yl]methyl]-N-methyl-propan-1-amine], “+ (estrogen receptor agonism having (i) at least 80% increase in the E2-normalized signal in the AP assay (agonist mode) and (ii) no more than 80% reduction in the E2-normalized signal in the AP assay (antagonist mode))”; with `C[C@@H]1Cc2c([nH]c3ccccc23)[C@@H](c2ccc3oc(C4CN(CCCF)C4)nc3c2)N1CC(C)(C)F` [Compound I-82, 5-[(1R,3R)-2-(2-fluoro-2-methyl-propyl)-3-methyl-1,3,4,9-tetrahydropyrido[3,4-b]indol-1-yl]-2-[1-(3-fluoropropyl)azetidin-3-yl]-1,3-benzoxazole], “+ (estrogen receptor agonism having (i) at least 80% increase in the E2-normalized signal in the AP assay (agonist mode) and (ii) no more than 80% reduction in the E2-normalized signal in the AP assay (antagonist mode))”.
Under `C[C@@H]1Cc2c([nH]c3ccccc23)[C@@H](c2ccc3c(c2)nc(CN2CC(CF)C2)[s+]3[O-])N1CC(C)(C)F` (stereo partly drawn) [Compound I-104, 2-[[3-(fluoromethyl)azetidin-1-yl]methyl]-5-[(1R,3R)-2-(2-fluoro-2-methyl-propyl)-3-methyl-1,3,4,9-tetrahydropyrido[3,4-b]indol-1-yl]-1,3-benzothiazole 1-oxide] stands “+ (estrogen receptor agonism having (i) at least 80% increase in the E2-normalized signal in the AP assay (agonist mode) and (ii) no more than 80% reduction in the E2-normalized signal in the AP assay (antagonist mode))”; under `CC1CN(Cc2ccc3c([C@@H]4c5[nH]c6ccccc6c5C[C@@H](C)N4CC(F)(F)CO)n[nH]c3c2)C1` [Compound I-17, 2,2-difluoro-3-((1S,3R)-3-methyl-1-(6-((3-methylazetidin-1-yl)methyl)-1H-indazol-3-yl)-1,3,4,9-tetrahydro-2H-pyrido[3,4-b]indol-2-yl)propan-1-ol], “+++ (estrogen receptor antagonism (i) with pIC50 greater than 7.5 and at least a 10% reduction in the E2-normalized signal in the AP assay (antagonist mode); and (ii) no more than 10% increase in E2-normalized signal in the AP assay (agonist mode))”; under `C[C@@H]1Cc2c([nH]c3ccccc23)[C@@H](c2ccc3[nH]c(CN4CC5(CCC5)C4)cc3c2)N1CC(C)(C)F` [Compound I-44, (1R,3R)-1-[2-(2-azaspiro[3.3]heptan-2-ylmethyl)-1H-indol-5-yl]-2-(2-fluoro-2-methyl-propyl)-3-methyl-1,3,4,9-tetrahydropyrido[3,4-b]indole], “++ (estrogen receptor antagonism having (i) between 10% and 80% increase in the E2-normalized signal in the AP assay (agonist mode) and (ii) between 10% and 80% reduction in the E2-normalized signal in the AP assay (antagonist mode))”.
As for `CC(C)C1CN(Cc2cc3cc([C@@H]4c5[nH]c6ccccc6c5C[C@@H](C)N4CC(C)(C)F)ccc3[nH]2)C1` [Compound I-95, (1R,3R)-2-(2-fluoro-2-methyl-propyl)-1-[2-[(3-isopropylazetidin-1-yl)methyl]-1H-indol-5-yl]-3-methyl-1,3,4,9-tetrahydropyrido[3,4-b]indole], the “Activity” value was “+ (estrogen receptor agonism having (i) at least 80% increase in the E2-normalized signal in the AP assay (agonist mode) and (ii) no more than 80% reduction in the E2-normalized signal in the AP assay (antagonist mode))”.
Under `C[C@@H]1Cc2c([nH]c3ccccc23)[C@@H](c2ccc3sc(CN4CC(CF)C4)nc3c2)N1CC(C)(C)F` [Compound I-103, 2-[[3-(fluoromethyl)azetidin-1-yl]methyl]-5-[(1R,3R)-2-(2-fluoro-2-methyl-propyl)-3-methyl-1,3,4,9-tetrahydropyrido[3,4-b]indol-1-yl]-1,3-benzothiazole] stands “+ (estrogen receptor agonism having (i) at least 80% increase in the E2-normalized signal in the AP assay (agonist mode) and (ii) no more than 80% reduction in the E2-normalized signal in the AP assay (antagonist mode))”.
Under `C[C@@H]1Cc2c([nH]c3ccccc23)[C@@H](c2ccc3[nH]c(CN4CC5(CC(F)C5)C4)cc3c2)N1CC(C)(C)F` [Compound I-87, (1R,3R)-1-(2-((6-fluoro-2-azaspiro[3.3]heptan-2-yl)methyl)-1H-indol-5-yl)-2-(2-fluoro-2-methylpropyl)-3-methyl-2,3,4,9-tetrahydro-1H-pyrido[3,4-b]indole] stands “+ (estrogen receptor agonism having (i) at least 80% increase in the E2-normalized signal in the AP assay (agonist mode) and (ii) no more than 80% reduction in the E2-normalized signal in the AP assay (antagonist mode))”.
Under `C[C@@H]1Cc2c([nH]c3ccccc23)[C@@H](c2n[nH]c3cc(CN4CC(CF)C4)ccc23)N1CC(F)(F)CO` [Compound I-16, 2,2-difluoro-3-[(1S,3R)-1-[6-[[3-(fluoromethyl)azetidin-1-yl]methyl]-1H-indazol-3-yl]-3-methyl-1,3,4,9-tetrahydropyrido[3,4-b]indol-2-yl]propan-1-ol] stands “++ (estrogen receptor antagonism having (i) between 10% and 80% increase in the E2-normalized signal in the AP assay (agonist mode) and (ii) between 10% and 80% reduction in the E2-normalized signal in the AP assay (antagonist mode))”; under `C[C@@H]1Cc2c([nH]c3ccccc23)[C@@H](c2ccc3oc(CN4CC5(CCC5)C4)nc3c2)N1CC(C)(C)F` [Compound I-77, 2-(2-azaspiro[3.3]heptan-2-ylmethyl)-5-[(1R,3R)-2-(2-fluoro-2-methyl-propyl)-3-methyl-1,3,4,9-tetrahydropyrido[3,4-b]indol-1-yl]-1,3-benzoxazole], “+++ (estrogen receptor antagonism (i) with pIC50 greater than 7.5 and at least a 10% reduction in the E2-normalized signal in the AP assay (antagonist mode); and (ii) no more than 10% increase in E2-normalized signal in the AP assay (agonist mode))”.
As to `C[C@@H]1Cc2c([nH]c3ccccc23)[C@@H](c2ccn3cc(CN4CC(CF)C4)nc3c2)N1CC(C)(C)F` [Compound I-74, (1R,3R)-1-[2-[[3-(fluoromethyl)azetidin-1-yl]methyl]imidazo[1,2-a]pyridin-7-yl]-2-(2-fluoro-2-methyl-propyl)-3-methyl-1,3,4,9-tetrahydropyrido[3,4-b]indole], the “Activity” value is “+++ (estrogen receptor antagonism (i) with pIC50 greater than 7.5 and at least a 10% reduction in the E2-normalized signal in the AP assay (antagonist mode); and (ii) no more than 10% increase in E2-normalized signal in the AP assay (agonist mode))”.

(Values after patent US20260355165A1, “2,3,4,9-TETRAHYDRO-1H-PYRIDO[3,4-B]INDOLE DERIVATIVES AS ESTROGEN RECEPTOR MODULATORS FOR THE TREATMENT OF CANCER” (Olema Pharmaceuticals, Inc., priority 2022, published 2026).)
